According to paper PMC6366416, “Synthesis and in vitro anticancer activity of certain novel 1-(2-methyl-6-arylpyridin-3-yl)-3-phenylureas as apoptosis-inducing agents” (Journal of Enzyme Inhibition and Medicinal Chemistry, 2019):

Tests used:
Assay in all cases: NCI one-dose SRB growth inhibition
Format in all cases: cell-based
[1] = test system: HCT-116; conditions: Homo sapiens, HCT-116, 48 h, Colon Cancer, read-out: GI% HCT-116
Outline: (§1)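 NCI DTP screen; 48 h drug exposure; SRB read-out of cell growth/viability; nine-tumour-type panel.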

[2] = test system: NCI-H322M; conditions: Homo sapiens, Non-Small Cell Lung Cancer, 48 h, read-out: GI% NCI-H322M
Outline: as §1

[3] = test system: HT29; conditions: Homo sapiens, HT-29, 48 h, Colon Cancer, read-out: GI% HT29
Outline: as §1

[4] = test system: MALME-3M; conditions: Homo sapiens, Melanoma, 48 h, read-out: GI% MALME-3M
Outline: as §1

[5] = test system: T-47D; conditions: Homo sapiens, T47D, 48 h, Breast Cancer, read-out: GI% T-47D
Outline: as §1

[6] = test system: NCI-H522; conditions: Homo sapiens, NCI-H522, 48 h, Non-Small Cell Lung Cancer, read-out: GI% NCI-H522
Outline: as §1

[7] = test system: LOX IMVI; conditions: Homo sapiens, Melanoma, 48 h, read-out: GI% LOX IMVI
Outline: as §1

[8] = test system: IGROV1; conditions: Homo sapiens, IGROV-1, Ovarian Cancer, 48 h, read-out: GI% IGROV1
Outline: as §1

[9] = test system: NCI-H460; conditions: Homo sapiens, Non-Small Cell Lung Cancer, 48 h, read-out: GI% NCI-H460
Outline: as §1

[10] = test system: SF-539; conditions: Homo sapiens, CNS Cancer, 48 h, read-out: GI% SF-539
Outline: as §1

[11] = test system: MOLT-4; conditions: Homo sapiens, Leukemia, 48 h, read-out: GI% MOLT-4
Outline: as §1

[12] = test system: A498; conditions: Homo sapiens, Renal Cancer, 48 h, read-out: GI% A498
Outline: as §1

[13] = test system: UO-31; conditions: Homo sapiens, Renal Cancer, 48 h, read-out: GI% UO-31
Outline: as §1

[14] = test system: K-562; conditions: Homo sapiens, K562, 48 h, Leukemia, read-out: GI% K-562
Outline: as §1

[15] = test system: OVCAR-4; conditions: Homo sapiens, Ovarian Cancer, 48 h, read-out: GI% OVCAR-4
Outline: as §1

[16] = test system: HL-60(TB); conditions: Homo sapiens, Leukemia, 48 h, read-out: GI% HL-60(TB)
Outline: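 Run under the NCI Developmental Therapeutics Program protocol at a single dose, with 48 h drug exposure. Growth and viability read by sulforhodamine B staining.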

[17] = test system: CCRF-CEM; conditions: Homo sapiens, Leukemia, 48 h, read-out: GI% CCRF-CEM
Outline: as §1

[18] = test system: DU-145; conditions: Homo sapiens, Prostate, 48 h, read-out: GI% DU-145
Outline: as §1

[19] = test system: SK-MEL-2; conditions: Homo sapiens, Melanoma, 48 h, read-out: GI% SK-MEL-2
Outline: as §1

[20] = test system: HS 578T; conditions: Homo sapiens, Breast Cancer, 48 h, read-out: GI% HS 578T
Outline: as §1

[21] = test system: HOP-62; conditions: Homo sapiens, Non-Small Cell Lung Cancer, 48 h, read-out: GI% HOP-62
Outline: as §1

[22] = test system: HCT-15; conditions: Homo sapiens, HCT-15, 48 h, Colon Cancer, read-out: GI% HCT-15
Outline: as §1

[23] = test system: SNB-75; conditions: Homo sapiens, CNS Cancer, 48 h, read-out: GI% SNB-75
Outline: as §1

[24] = test system: OVCAR-5; conditions: Homo sapiens, Ovarian Cancer, 48 h, read-out: GI% OVCAR-5
Outline: as §1

[25] = test system: PC-3; conditions: Homo sapiens, PC-3, 48 h, Prostate, read-out: GI% PC-3
Outline: as §1

[26] = test system: UACC-62; conditions: Homo sapiens, UACC-62, 48 h, Melanoma, read-out: GI% UACC-62
Outline: as §1

[27] = test system: A549/ATCC; conditions: Homo sapiens, A549, 48 h, Non-Small Cell Lung Cancer, read-out: GI% A549/ATCC
Outline: as §1

[28] = test system: 786-0; conditions: Homo sapiens, Renal Cancer, 48 h, read-out: GI% 786-0
Outline: as §1

[29] = test system: SR; conditions: Homo sapiens, 48 h, Leukemia, read-out: GI% SR
Outline: as §1

[30] = test system: M14; conditions: Homo sapiens, M14, 48 h, Melanoma, read-out: GI% M14
Outline: as §1

[31] = test system: EKVX; conditions: Homo sapiens, Non-Small Cell Lung Cancer, 48 h, read-out: GI% EKVX
Outline: as §1

[32] = test system: MDA-MB-231; conditions: Homo sapiens, Breast Cancer, 48 h, read-out: GI% MDA-MB-231
Outline: as §1

[33] = test system: SF-268; conditions: Homo sapiens, CNS Cancer, 48 h, read-out: GI% SF-268
Outline: as §1

SMILES	inhibition at 10 µM [1] [%]	inhibition at 10 µM [2] [%]	inhibition at 10 µM [3] [%]	inhibition at 10 µM [4] [%]	inhibition at 10 µM [5] [%]	inhibition at 10 µM [6] [%]	inhibition at 10 µM [7] [%]	inhibition at 10 µM [8] [%]	inhibition at 10 µM [9] [%]	inhibition at 10 µM [10] [%]	inhibition at 10 µM [11] [%]	inhibition at 10 µM [12] [%]	inhibition at 10 µM [13] [%]	inhibition at 10 µM [14] [%]	inhibition at 10 µM [15] [%]	inhibition at 10 µM [16] [%]	inhibition at 10 µM [17] [%]	inhibition at 10 µM [18] [%]	inhibition at 10 µM [19] [%]	inhibition at 10 µM [20] [%]	also measured
Cc1nc(-c2ccc(F)cc2)ccc1NC(=O)Nc1ccc2c(c1)OCO2 [Compound 5d, 1-(Benzo[d][1, 3]dioxol-5-yl)-3-(6-(4-fluorophenyl)-2-methylpyridin-3-yl)urea]	17	< 10	14	< 10	< 10	45	34	< 10	< 10	< 10	< 10	< 10	< 10	23	< 10	< 10	< 10	< 10	< 10	< 10	inhibition at 10 µM [21]: < 10%; inhibition at 10 µM [22]: < 10%; inhibition at 10 µM [23]: < 10%; inhibition at 10 µM [24]: < 10%; inhibition at 10 µM [25]: < 10%; inhibition at 10 µM [26]: 20%; inhibition at 10 µM [27]: 13%; inhibition at 10 µM [28]: < 10%; inhibition at 10 µM [29]: 11%; inhibition at 10 µM [30]: 37%; inhibition at 10 µM [31]: < 10%; inhibition at 10 µM [32]: < 10%; inhibition at 10 µM [33]: < 10%
Cc1nc(-c2cccs2)ccc1NC(=O)Nc1ccc(Cl)cc1 [Compound 5i, 1-(4-Chlorophenyl)-3-(2-methyl-6-(thiophen-2-yl)pyridin-3-yl)urea]	< 10	< 10	< 10	< 10	13	28	< 10	< 10	< 10	< 10	15	< 10	< 10	< 10	< 10	20	< 10	< 10	< 10	< 10	inhibition at 10 µM [21]: < 10%; inhibition at 10 µM [22]: < 10%; inhibition at 10 µM [23]: < 10%; inhibition at 10 µM [24]: < 10%; inhibition at 10 µM [25]: < 10%; inhibition at 10 µM [26]: 19%; inhibition at 10 µM [27]: 29%; inhibition at 10 µM [28]: < 10%; inhibition at 10 µM [29]: < 10%; inhibition at 10 µM [30]: < 10%; inhibition at 10 µM [31]: < 10%; inhibition at 10 µM [32]: < 10%; inhibition at 10 µM [33]: < 10%
Cc1nc(-c2ccc(F)cc2)ccc1NC(=O)Nc1cccc(C(F)(F)F)c1 [Compound 5a, 1-(6-(4-Fluorophenyl)-2-methylpyridin-3-yl)-3-(3-(trifluoromethyl)phenyl)urea]	> 40	15	> 40	< 10	> 40	> 40	37	< 10	34	< 10	33	< 10	15	> 40	30	11	25	11	< 10	< 10	inhibition at 10 µM [21]: 31%; inhibition at 10 µM [22]: > 40%; inhibition at 10 µM [23]: < 10%; inhibition at 10 µM [24]: < 10%; inhibition at 10 µM [25]: > 40%; inhibition at 10 µM [26]: > 40%; inhibition at 10 µM [27]: > 40%; inhibition at 10 µM [28]: < 10%; inhibition at 10 µM [29]: > 40%; inhibition at 10 µM [30]: > 40%; inhibition at 10 µM [31]: 17%; inhibition at 10 µM [32]: 28%; inhibition at 10 µM [33]: < 10%
CCOC(=O)c1ccc(NC(=O)Nc2ccc(-c3ccc(F)cc3)nc2C)cc1 [Compound 5c, Ethyl 4-(3-(6-(4-fluorophenyl)-2-methylpyridin-3-yl)ureido)benzoate]	< 10	< 10	18	< 10	< 10	24	24	< 10	< 10	< 10	< 10	< 10	< 10	< 10	< 10	13	< 10	< 10	< 10	< 10	inhibition at 10 µM [21]: < 10%; inhibition at 10 µM [22]: < 10%; inhibition at 10 µM [23]: < 10%; inhibition at 10 µM [24]: < 10%; inhibition at 10 µM [25]: < 10%; inhibition at 10 µM [26]: 29%; inhibition at 10 µM [27]: 25%; inhibition at 10 µM [28]: < 10%; inhibition at 10 µM [29]: 16%; inhibition at 10 µM [30]: 38%; inhibition at 10 µM [31]: < 10%; inhibition at 10 µM [32]: < 10%; inhibition at 10 µM [33]: < 10%
